The nature of data set [1]: Lipophilicity determination by HPLC (capacity factor k / calculated log k). Type of data set: physicochemical. Conditions: experimental lipophilicity. How it is done: The lipophilicity determination was performed as described by Kapustikova et al..
For data set [2], the system named is Staphylococcus aureus ATCC 29213. In words: In vitro antistaphylococcal susceptibility testing (MIC), reference strain. Type of data set: cell-based. Here is the method:
(§1) The synthesized compounds were evaluated for in vitro antibacterial activity against representatives of multidrug-resistant bacteria, clinical isolates of methicillin-resistant Staphylococcus aureus (MRSA) 63718, SA 630 and SA 3202 [16, 17] that were obtained from the National Institute of Public Health (Prague, Czech Republic). S. aureus ATCC 29213 was used as the reference and quality control strain. Ampicillin (Sigma, St. Louis, MO, USA) was used as the standard. The screening was performed as described previously.

The test system of data set [3] is methicillin-resistant S. aureus 63718. In words: In vitro antibacterial evaluation (MIC), MRSA clinical isolate 63718. Type of data set: cell-based, Staphylococcus aureus. As to conditions: Staphylococcus aureus. How it is done: as §1
In data set [4] the test system is methicillin-resistant S. aureus SA 630. In words: In vitro antibacterial evaluation (MIC), MRSA clinical isolate SA 630. Type of data set: cell-based, Staphylococcus aureus. As to conditions: Staphylococcus aureus, read-out: MIC MRSA SA 630. How it is done:
as §1

The test system of data set [5] is methicillin-resistant S. aureus SA 3202. In words: In vitro antibacterial evaluation (MIC), MRSA clinical isolate SA 3202. As to conditions: Staphylococcus aureus, read-out: MIC MRSA SA 3202. Type of data set: cell-based, Staphylococcus aureus. Here is the method:
as §1

For data set [6], the system named is Mycobacterium tuberculosis H37Ra ATCC 25177. In words: In vitro antimycobacterial evaluation (MIC), M. tuberculosis. In kind it is cell-based. Here is the method: (§2) The evaluation of the in vitro antimycobacterial activity of the compounds was performed against Mycobacterium tuberculosis H37Ra ATCC 25177 and M. kansasii DSM 44162 by means of the methodology described recently [e.g., 1,3,4–6,15,43]. Isoniazid (Sigma) was used as the standard.

The test system of another data set is M. kansasii DSM 44162. In words: In vitro antimycobacterial evaluation (MIC), M. kansasii. Type of data set: cell-based, Mycobacterium kansasii. How it is done:
as §2

Data set [7] deals with human monocytic leukaemia THP-1 cells. In kind it is cell-based. Conditions: 30 µM highest concentration. How it is done: Human monocytic leukaemia THP-1 cells were obtained from the European Collection of Cell Cultures (ECACC, Salisbury, UK; Methods of characterization: DNA Fingerprinting (Multilocus probes) and isoenzyme analysis). Cell toxicity was determined using a Cytotoxicity Detection Kit^PLUS Lactate dehydrogenase (LDH) assay kit (Roche Diagnostics, Mannheim, Germany) according to the manufacturer’s instructions, as described previously.

The test system of data set [8] is photosynthetic electron transport (PET) in spinach (Spinacia oleracea L.) chloroplasts. In words: Inhibition of photosynthetic electron transport (PET) in spinach chloroplasts. In kind it is biochemical. Here is the method:
The PET-inhibiting investigation using chloroplasts from spinach (Spinacia oleracea L.) was performed as described previously.

A further data set concerns S. aureus ATCC 29213. As to conditions: Staphylococcus aureus, 24 h.
The subject of data set [9] is M. tuberculosis ATCC 25177/H37Ra. In words: MTT assay, viability of M. tuberculosis. As to conditions: at tested MIC concentration; 7 days. In kind it is cell-based, Mycobacterium tuberculosis. How it is done:
Compounds were prepared as previously stated and diluted in MH or MB broth for S. aureus to achieve the desired final concentrations 0.5 and 1 µg/mL, respectively, for S. aureus ATCC 29213, and 2 and 8 µg/mL, respectively, for M. tuberculosis ATCC 25177/H37Ra. M. tuberculosis ATCC 25177/H37Ra was suspended in ODAC supplemented MB at 1.0 McFarland and then diluted 1:10, using MB as a diluent. The diluted mycobacteria (50 µL) were added to each well containing the compound to be tested. S. aureus bacterial suspension in sterile distilled water at 0.5 McFarland was diluted 1:3. Inocula were added to each well by multi-inoculator. Diluted mycobacteria in broth free from inhibiting compounds were used as the growth control. All compounds were prepared in duplicate. […] The plates were read at 570 nm. The absorbance readings from the cells grown in the presence of the tested compounds were compared with uninhibited cell growth to determine the relative percent inhibition. The percent inhibition was determined through the MTT assay. The percent viability is calculated through the comparison of a measured value and that of the uninhibited control: % viability = OD570E/OD570P × 100, where OD570E is the reading from the compound-exposed cells, while OD570P is the reading from the uninhibited cells (positive control). Cytotoxic potential is determined by a percent viability of <70% [37, 38, 39, 52].

Setting [10] is: clinical isolate MRSA 63718, read-out: MIC MRSA 63718.
Where [11] appears, read: one value for the three clinical MRSA strains (63718, SA 630, SA 3202), read-out: MIC against the MRSA strains.
The mark [12] stands for this setting: Mycobacterium kansasii, DSM44162, M. kansasii DSM 44162, read-out: MIC MK.

Values after ≈ are worked out from the molar mass of the structure shown. Like-named read-outs stand apart in the source and are kept apart here.

With `COc1cc(F)cc(NC(=O)c2ccc3ccccc3c2O)c1` [Compound 23, N-(3-Fluoro-5-methoxyphenyl)-1-hydroxynaphthalene-2-carboxamide], the log k in [1] was 0.7629. The MIC in [2] stood at 1.60 µM (≈ 0.498 µg/mL); in [2] (ATCC29213), 1.6 µM (≈ 0.498 µg/mL); in [3] (setting [10]) it was 3.21 µM (≈ 0.999 µg/mL); in [3] (setting [11]) it was 3.21 µM (≈ 0.999 µg/mL); in [4] (clinical isolate MRSA SA 630), 3.21 µM (≈ 0.999 µg/mL); in [5] (clinical isolate MRSA SA 3202), 3.21 µM (≈ 0.999 µg/mL). For the same molecule, the MIC was determined as 25.6 µM (≈ 7.97 µg/mL) in data set [6]; 12.0 µM (≈ 3.74 µg/mL) with M. kansasii DSM 44162 (M. kansasii DSM 44162, read-out: MIC MK); 12 µM (≈ 3.74 µg/mL) with M. kansasii DSM 44162 (setting [12]). Besides, the “Tox LD50” value in [7] was greater than 30 µM. This molecule also came in with an IC50 in data set [8] of 10.1 µM. In addition, the “viability of S. aureus ATCC 29213 (MTT)” value with S. aureus ATCC 29213 came to 49%.

As for `Cc1cc(C)cc(NC(=O)c2ccc3ccccc3c2O)c1` [Compound 13, N-(3,5-dimethylphenyl)-1-hydroxynaphthalene-2-carboxamide], the log k in [1] is 1.0030. The MIC in data set [2] is 3.43 µM (≈ 0.999 µg/mL); in data set [2] (ATCC29213), 3.43 µM (≈ 0.999 µg/mL); in data set [3] (setting [10]), 6.85 µM (≈ 2 µg/mL); in [3] (setting [11]), 6.85 µM (≈ 2 µg/mL); in [4] (clinical isolate MRSA SA 630) it was 6.85 µM (≈ 2 µg/mL); in data set [5] (clinical isolate MRSA SA 3202), 6.85 µM (≈ 2 µg/mL). Also, the results for the minimal inhibitory concentration (MIC) (in data set [6]; in the data set on M. kansasii DSM 44162 (setting [12])) were 6.86 µM (≈ 2 µg/mL) and 27.4 µM (≈ 7.98 µg/mL), respectively. Also, the “Tox LD50” value in [7] is greater than 30 µM. Moreover, in data set [8], the IC50 is 8.19 µM. The “viability of M. tuberculosis H37Ra (MTT)” value in data set [9] came out at 32%. The “viability of S. aureus ATCC 29213 (MTT)” value in the data set with S. aureus ATCC 29213 worked out at 19%.

On to `COc1cc(NC(=O)c2ccc3ccccc3c2O)cc(OC)c1` [Compound 6, N-(3,5-dimethoxy-phenyl)-1-hydroxynaphthalene-2-carboxamide], for which the log k in [1] is 0.7048. Moreover, the MIC in [2] is 12.3 µM (≈ 3.98 µg/mL); in [2] (ATCC29213), 12.3 µM (≈ 3.98 µg/mL); in [3] (MRSA, read-out: MIC MRSA 63718), 24.7 µM (≈ 7.99 µg/mL); in data set [3] (MRSA, read-out: MIC against the MRSA strains), 24.7 µM (≈ 7.99 µg/mL); in data set [4] (MRSA) it was 24.7 µM (≈ 7.99 µg/mL); in [5] (MRSA), 24.7 µM (≈ 7.99 µg/mL). In addition, the MIC in data set [6] was 24.7 µM (≈ 7.99 µg/mL); in the data set with M. kansasii DSM 44162 (Mycobacterium kansasii, DSM44162, read-out: MIC MK), 24.7 µM (≈ 7.99 µg/mL). Also, in [7], the “Tox LD50” value was greater than 30 µM. This molecule displayed an IC50 in [8] of 13.4 µM.

In turn, `COc1ccc(Br)cc1NC(=O)c1ccc2ccccc2c1O` [Compound 20, N-(5-Bromo-2-methoxyphenyl)-1-hydroxynaphthalene-2-carboxamide] came in with a melting point of 157 to 159 °C. In addition, the log k in [1] is recorded as 1.0432. The MIC in [2] (ATCC29213) worked out at 687 µM (≈ 256 µg/mL). The MIC in [3] (setting [10]) is 687 µM (≈ 256 µg/mL). Further, the MIC in data set [4] (clinical isolate MRSA SA 630) worked out at 687 µM (≈ 256 µg/mL). Moreover, the MIC in data set [5] (clinical isolate MRSA SA 3202) was found to be 687 µM (≈ 256 µg/mL). Also, in data set [6], it took 344 µM (≈ 128 µg/mL) to inhibit growth (MIC). Further, the MIC in the data set with M. kansasii DSM 44162 (setting [12]) was determined as 687 µM (≈ 256 µg/mL). For the same molecule, in data set [8], the IC50 was 569 µM.

Regarding `CC[C@@]1(O)C(=O)OCc2c1cc1n(c2=O)Cc2cc3ccccc3nc2-1` [camptothecin, reference compound], the “Tox LD50” value in data set [7] was 0.16 ± 0.07 µM.

As for `Cc1ccc(C)c(NC(=O)c2ccc3ccccc3c2O)c1` [Compound 11, N-(2,5-dimethylphenyl)-1-hydroxynaphthalene-2-carboxamide], in [1], the log k is 0.7155. Moreover, the MIC in [2] (ATCC29213) amounted to 13.7 µM (≈ 3.99 µg/mL); in data set [3] (setting [10]), 27.5 µM (≈ 8.01 µg/mL); in data set [3] (setting [11]) it was 27.5 µM (≈ 8.01 µg/mL); in [4] (clinical isolate MRSA SA 630) it was 27.5 µM (≈ 8.01 µg/mL); in data set [5] (clinical isolate MRSA SA 3202), 27.5 µM (≈ 8.01 µg/mL); in [6], 110 µM (≈ 32 µg/mL). Moreover, in the data set on M. kansasii DSM 44162 (setting [12]), the MIC amounted to 220 µM (≈ 64.1 µg/mL). Also, in [7], the “Tox LD50” value was greater than 30 µM. Besides, the IC50 in data set [8] was determined as 52.4 µM.

(Values after publication PMC6720605, “Bioactivity of Methoxylated and Methylated 1-Hydroxynaphthalene-2-Carboxanilides: Comparative Molecular Surface Analysis” (Molecules, 2019).)
